Measured values as given in patent US10485787B2, “Oral dosage forms of bendamustine and therapeutic use thereof” (ASTELLAS DEUTSCHLAND GMBH, priority 2010, dated 2019).
Where a name gives a salt, the structure may show the parent alone.

Experiments:
[1] = Phase 1 crossover study, urine pharmacokinetics of bendamustine, M3 and M4 (Example 23); assay type: in vivo, patients; conditions: for percentage of the dose excreted in urine as the metabolite: oral administration; for %Aeinf / %Aelast / CL renal: urine, Bendamustine HCl; for CL renal: human; for percentage of the dose excreted in urine unchanged: oral bendamustine
Method: Bendamustine was provided a) orally as capsules, a LFHC formulation (liquid-filled, hard-shell capsule) and b) intravenously as a solution after reconstituting a powder for the preparation of a solution for injection. The LFHC formulation (per capsule) was prepared from 55.1 mg bendamustine hydrochloride, 1.2 mg methylparaben, 0.12 mg polyparaben, 0.12 mg butylated hydroxytoluene, 10.9 mg ethanol and 532.56 mg Cremophor® RH40. The vial with powder for concentrate for solution was the marketed product in Germany (Ribomustine®) which contains per vial 100 mg of bendamustine hydrochloride and mannitol as an excipient. This product was reconstituted with water for injection to a final concentration of 2.5 mg/ml of bendamustine HCl and was further diluted with 0.9% NaCl until about 500 ml before administration to the patient, in accordance with the instructions of the package insert.
After oral and intravenous administration of bendamustine the concentration of bendamustine, as well as that of the active metabolites of bendamustine (M3 and M4), were determined in plasma and urine samples on day 1 and day 8. […] Subsequently the pharmacokinetic parameters of bendamustine and its metabolites were calculated.

[2] = Phase 1 crossover study, plasma pharmacokinetics of bendamustine, M3 and M4 (Example 23)
Method: 14 patients who were suffering from multiple myeloma, B-cell type chronic lymphocytic leukemia or advanced indolent non-Hodgkin's lymphoma were enrolled and were treated with bendamustine. […] After signing the informed consent form and following the screening period (days −21 to −2), eligible patients were assigned a patient number which was specific for each study site. Patients were randomized to receive one of the following on day 1 followed by the other on day 8: • a single oral dose of 110.2 mg (2×55.1 mg) bendamustine HCl • a single intravenous dose of 100 mg bendamustine HCl
Bendamustine was provided a) orally as capsules, a LFHC formulation (liquid-filled, hard-shell capsule) and b) intravenously as a solution after reconstituting a powder for the preparation of a solution for injection. The LFHC formulation (per capsule) was prepared from 55.1 mg bendamustine hydrochloride, 1.2 mg methylparaben, 0.12 mg […], 0.12 mg butylated hydroxytoluene, 10.9 mg ethanol and 532.56 mg Cremophor® RH40. The vial with powder for concentrate for solution was the marketed product in Germany (Ribomustine®) which contains per vial 100 mg of bendamustine hydrochloride and mannitol as an excipient. This product was reconstituted with water for injection to a final concentration of 2.5 mg/ml of bendamustine HCl and was further diluted with 0.9% NaCl until about 500 ml before administration to the patient, in accordance with the instructions of the package insert.
Patients were admitted to the study site for 2 periods; days −1 to 2 (period 1) and days 7 to 9 (period 2). A total of 12 patients was to be randomized to receive treatment. Six patients were to receive treatment with a single oral dose of 110.2 mg (2×55.1 mg) bendamustine HCl (day 1) followed by a single intravenous dose of 100 mg bendamustine HCl (day 8) while 6 other patients were to receive treatment in the alternate order. Patients underwent a washout period of at least 7 days between treatments.
After oral and intravenous administration of bendamustine the concentration of bendamustine, as well as that of the active metabolites of bendamustine (M3 and M4), were determined in plasma and urine samples on day 1 and day 8. Patients returned to the study site for an end-of-study visit 7 to 14 days after completion of the second treatment period, or after early discharge/withdrawal. Subsequently the pharmacokinetic parameters of bendamustine and its metabolites were calculated.

[3] = a range of organic solvents; cited from earlier work
[4] = cited from earlier work
[5] = Phase 1 crossover study, safety and tolerability (Example 23); assay type: in vivo, patients; conditions: oral and intravenous single doses
Method: Bendamustine was provided a) orally as capsules, a LFHC formulation (liquid-filled, hard-shell capsule) and b) intravenously as a solution after reconstituting a powder for the preparation of a solution for injection. The LFHC formulation (per capsule) was prepared from 55.1 mg bendamustine hydrochloride, 1.2 mg methylparaben, 0.12 mg polyparaben, 0.12 mg butylated hydroxytoluene, 10.9 mg ethanol and 532.56 mg Cremophor® RH40. The vial with powder for concentrate for solution was the marketed product in Germany (Ribomustine®) which contains per vial 100 mg of bendamustine hydrochloride and mannitol as an excipient. […]

[6] = Stability of aqueous solution of bendamustine as a function of pH; assay type: physicochemical

Cn1c(C(O)CCC(=O)O)nc2cc(N(CCCl)CCCl)ccc21 (stereo not drawn) [Example M3, γ-hydroxybendamustine]
percentage of the dose excreted in urine as the metabolite [1]: 0.6%
%Aeinf ([1]; 100 mg intravenously, Mean): 0.459%
%Aelast ([1]; 100 mg intravenously, Mean): 0.457%
%Aeinf ([1]; 100 mg intravenously, Median): 0.354%
%Aelast ([1]; 100 mg intravenously, Median): 0.353%
%Aeinf ([1]; 100 mg intravenously, Min-max): 0.018-1.6%
%Aelast ([1]; 100 mg intravenously, Min-max): 0.018-1.6%
%Aeinf ([1]; 110.2 mg orally, Mean): 0.611%
%Aelast ([1]; 110.2 mg orally, Mean): 0.61%
%Aeinf ([1]; 110.2 mg orally, Median): 0.537%
%Aelast ([1]; 110.2 mg orally, Median): 0.553%
%Aeinf ([1]; 110.2 mg orally, Min-max): 0.13-1.5%
%Aelast ([1]; 110.2 mg orally, Min-max): 0.12-1.6%
Mean AUCinf of bendamustine, times higher than for the metabolite ([2]; oral administration): 10.6 times

O=C(O)CCCc1nc2cc(N(CCCl)CCCl)ccc2[nH]1 [Example M4, N-desmethylbendamustine]
percentage of the dose excreted in urine as the metabolite [1]: 0.1%
%Aeinf ([1]; 100 mg intravenously, Mean): 0.081%
%Aelast ([1]; 100 mg intravenously, Mean): 0.086%
%Aeinf ([1]; 100 mg intravenously, Median): 0.045%
%Aelast ([1]; 100 mg intravenously, Median): 0.043%
%Aeinf ([1]; 100 mg intravenously, Min-max): 0.0039-0.17%
%Aelast ([1]; 100 mg intravenously, Min-max): 0.0028-0.21%
%Aeinf ([1]; 110.2 mg orally, Mean): 0.109%
%Aelast ([1]; 110.2 mg orally, Mean): 0.113%
%Aeinf ([1]; 110.2 mg orally, Median): 0.104%
%Aelast ([1]; 110.2 mg orally, Median): 0.104%
%Aeinf ([1]; 110.2 mg orally, Min-max): 0.034-0.22%
%Aelast ([1]; 110.2 mg orally, Min-max): 0.019-0.21%
Mean AUCinf of bendamustine, times higher than for the metabolite ([2]; oral administration): 88 times

Cn1c(CCCC(=O)O)nc2cc(N(CCCl)CCCl)ccc21 [bendamustine hydrochloride]
solubility in organic solvents [3]: slightly or very slightly soluble
CL renal ([1]; iv, 100 mg, 100 mg intravenously, Mean): 6.42 mL/min
CL renal ([1]; iv, 100 mg, 100 mg intravenously, Median): 3.37 mL/min
CL renal ([1]; iv, 100 mg, 100 mg intravenously, Min-max): 1 to 23.3 mL/min
CL renal ([1]; po, 110.2 mg, 110.2 mg orally, Mean): 13.1 mL/min
CL renal ([1]; po, 110.2 mg, 110.2 mg orally, Median): 13 mL/min
CL renal ([1]; po, 110.2 mg, 110.2 mg orally, Min-max): 3 to 33.3 mL/min
%Aeinf ([1]; 100 mg intravenously, Mean): 2.07%
%Aelast ([1]; 100 mg intravenously, Mean): 2.07%
%Aeinf ([1]; 100 mg intravenously, Median): 1.22%
%Aelast ([1]; 100 mg intravenously, Median): 1.23%
%Aeinf ([1]; 100 mg intravenously, Min-max): 0.27-8.8%
%Aelast ([1]; 100 mg intravenously, Min-max): 0.27-8.8%
%Aeinf ([1]; 110.2 mg orally, Mean): 2.64%
%Aelast ([1]; 110.2 mg orally, Mean): 2.66%
%Aeinf ([1]; 110.2 mg orally, Median): 2.23%
%Aelast ([1]; 110.2 mg orally, Median): 2.23%
%Aeinf ([1]; 110.2 mg orally, Min-max): 0.40-5.8%
%Aelast ([1]; 110.2 mg orally, Min-max): 0.40-5.9%
AUC(0-inf) ([2]; human, plasma, iv, 100 mg): 4790 ng·h/mL
AUC(0-t) ([2]; human, plasma, iv, 100 mg): 4780 ng·h/mL
Cmax ([2]; human, plasma, iv, 100 mg): 5900 ng/mL
Vd ([2]; human, plasma, iv, 100 mg, Vss, plasma, Bendamustine HCl, 100 mg intravenously, Mean): 10.3 L
Vd ([2]; human, plasma, iv, 100 mg, Vz, Bendamustine HCl, 100 mg intravenously, Mean): 14.7 L
half-life ([2]; human, plasma, iv, 100 mg, t1/2, plasma, Bendamustine HCl, 100 mg intravenously, Mean): 30.2 min
Tmax ([2]; human, plasma, iv, 100 mg, Bendamustine HCl, 100 mg intravenously, Mean): 31.4 min
AUC(0-inf) ([2]; human, plasma, po, 110.2 mg): 3900 ng·h/mL
AUC(0-t) ([2]; human, plasma, po, 110.2 mg): 3890 ng·h/mL
Cmax ([2]; human, plasma, po, 110.2 mg): 3170 ng/mL
Vd/F ([2]; human, plasma, po, 110.2 mg): 20.2 L
half-life ([2]; human, plasma, po, 110.2 mg, t1/2, plasma, Bendamustine HCl, 110.2 mg orally, Mean): 27.7 min
Tmax ([2]; human, plasma, po, 110.2 mg, Bendamustine HCl, 110.2 mg orally, Mean): 56.8 min
CL ([2]; plasma, Bendamustine HCl, 100 mg intravenously, Mean): 21.2 L/h
time at which maximal plasma levels were detectable ([4]; oral capsules, 250-350 mg, 7 patients (Preiss 1985)): ≤ 1 h
oral bioavailability, inter-individual range ([4]; similar study, Preiss et al. 1989): 25-121%

Cn1c(CCCC(=O)O)nc2cc(N(CCCl)CCCl)ccc21 [bendamustine, 4-[5-[bis(2-chloroethyl)amino]-1-methylbenzimidazo-2-yl]butanoic acid]
percentage of the dose excreted in urine unchanged [1]: 2.6%
percentage of the dose excreted in urine unchanged ([1]; listed as Bendamustine): Approximately 2.6%
deaths during the study [5]: No deaths
clearance ([2]; human, plasma, iv, 100 mg): 353 mL/min
Vd ([2]; human, plasma, iv, 100 mg, Mean VSS, intravenous administration): 10.3 L
Vd ([2]; human, plasma, iv, 100 mg, Mean VZ, intravenous administration): 14.7 L
half-life ([2]; human, plasma, iv, 100 mg, Mean t1/2, intravenous administration): ~30 min
half-life ([2]; human, plasma, po, 110.2 mg, Mean t1/2, oral intake): ~30 min
Tmax ([2]; human, plasma, po, 110.2 mg, individual values, oral administration): 15 to 108 min
Tmax ([2]; human, plasma, po, 110.2 mg, oral administration): ~57 min
oral bioavailability, range ([4]; oral capsules, 250-350 mg, patients (Preiss 1985)): 25-94%
pH values at which significant hydrolytic decomposition is observed [6]: higher than 5
